What was measured:
KRT1 = assay: Gene expression (qPCR) in NHEK: KRT1; format: cell-based, human; details: 24 hours, 0.1 mM (Vitamin B12 0.03 mM), normalized to HPRT1, n.s. = not statistically significant
Protocol: (§1) Vitamin B2, 0.1 mM • 2. D-panthenol, 0.1 mM • 3. Pyridoxine HCl, 0.1 mM • 4. Vitamin B12, 0.03mM • 5. Niacinamide, 0.1 mM • 6. Folic Acid, 0.1 mM
(§2) All Test Materials were diluted in DermaLife K medium.
(§3) Fresh media replacements were performed every other day.
(§4) OpenArray format. […] Each gene was assayed in duplicate.
(§5) See the Endogenous Control Selection section for more details. Unpaired t-tests were carried out using StatMiner software.

SPINK5 = assay: Gene expression (qPCR) in NHEK: SPINK5; format: cell-based, human; details: 24 hours, 0.1 mM (Vitamin B12 0.03 mM), normalized to HPRT1, n.s. = not statistically significant
Protocol: as §1, §2, §3, §4, §5

CALML5 = assay: Gene expression (qPCR) in NHEK: CALML5; format: cell-based, human; details: 24 hours, 0.1 mM (Vitamin B12 0.03 mM), normalized to HPRT1, n.s. = not statistically significant
Protocol: as §1, §2, §3, §4, §5

KLK7 = assay: Gene expression (qPCR) in NHEK: KLK7; format: cell-based, human; details: 24 hours, 0.1 mM (Vitamin B12 0.03 mM), normalized to HPRT1, n.s. = not statistically significant
Protocol: as §1, §2, §3, §4, §5

LCE3D = assay: Gene expression (qPCR) in NHEK: LCE3D; format: cell-based, human; details: 24 hours, 0.1 mM (Vitamin B12 0.03 mM), normalized to HPRT1, n.s. = not statistically significant
Protocol: as §1, §2, §3, §4, §5

hsa-miR-203 = assay: microRNA expression (qPCR) in NHEK: hsa-miR-203; details: for Changes in microRNA Expression of hsa-miR-203 (linear fold-change): 24 hours, 0.1 mM (Vitamin B12 0.03 mM), vs Control group, normalized to RNU44, N=4, negative = decrease
Protocol: (§6) The study was conducted to understand how different vitamin B supplements influence microRNA and mRNA gene expression in keratinocytes. MicroRNAs are small, non-coding RNA molecules that function as negative regulators of gene expression. […] The current study was performed using normal human epidermal keratinocytes [NHEK].
as §2
(§7) An initial cytotoxicity screening was performed to evaluate a range of Test Material concentrations prior to the microRNA analysis. […] Pyridoxine HCl, 0.1 mM • 4. Vitamin B12, 0.03mM • 5. Niacinamide, 0.1 mM • 6.
(§8) Unpaired t-tests (p<0.05, N=4) were performed to compare each Test Material group to the Control group. […] An endogenous control microRNAs (RNU44) was used for normalization.
as §1, §3
(§9) The preamplification reaction was run for 12 cycles.
(§10) qPCR Processing: qPCR reactions were run using validated Taqman® MicroRNA assays in a Custom OpenArray format. […] Each microRNA was assayed in duplicate.
(§11) Unpaired t-tests were carried out using StatMiner software.

hsa-miR-720 = assay: microRNA expression (qPCR) in NHEK: hsa-miR-720; details: 24 hours, 0.1 mM (Vitamin B12 0.03 mM), vs Control group, normalized to RNU44, N=4, negative = decrease
Protocol: as §6, §2, §7, §8, §1, §3, §9, §10, §11

KRT10 = assay: Gene expression (qPCR) in NHEK: KRT10; format: cell-based, human; details: 24 hours, 0.1 mM (Vitamin B12 0.03 mM), normalized to HPRT1, n.s. = not statistically significant
Protocol: as §1, §2, §3, §4, §5

TP63 = assay: Gene expression (qPCR) in NHEK: TP63; details: for Linear Fold-Change Value, Each Group vs the Untreated Control: TP63: 24 hours, 0.1 mM (Vitamin B12 0.03 mM), normalized to HPRT1, n.s. = not statistically significant
Protocol: Cell Culture, Cytotoxicity Screening: NHEK [purchased from Lifeline Cell Technologies] were cultured and maintained at 37°C with 5% CO2 using DermaLife K medium according to the manufacturer's recommendations. Two days prior to treatment, NHEK were seeded at a density of -20,000 cells per cm^2 in 24-well plates. Cultures were approximately 75% confluent at the time of treatment.
Stock solutions and final working concentrations of each Test Material were prepared: The following treatment groups were included in the study (N=4): • 1. Vitamin B2, 0.1 mM • 2. D-panthenol, 0.1 mM • 3. Pyridoxine HCl, 0.1 mM • 4. Vitamin B12, 0.03mM • 5. Niacinamide, 0.1 mM • 6. Folic Acid, 0.1 mM
All Test Materials were diluted in DermaLife K medium. NHEK cultured in DermaLife K medium without added supplements served as the Control group.
Treatment and Maintenance of Cultures: Maintenance medium (DermaLife K) was removed from each culture well and replaced with 500 µL (for 24-well cytotoxicity screening) or 2.0 mL (for 6-well gene expression screening) prewarmed Test Medium. Following application of Test Media, the cultures were returned to the incubator at 37°C with 5 % CO2 for 24 hours.
Treatment and Collection of Cell Culture for Gene Expression: Cultures were seeded at a concentration of 20,000 cells/cm^2 in a 6-well plate and incubated for three days at 37°C with 5 % CO2. Fresh media replacements were performed every other day. On the day of treatment, maintenance medium was replaced with test medium. Following a 24 hour exposure, test medium was removed and cell lysis was performed through the addition of 700uL Qiazol lysis buffer (Qiagen) to each well. Cell lysates were immediately collected and stored at -80°C.
RNA Isolation: Total RNA was isolated from frozen cell lysates using a Qiagen miRNeasy Mini kit following the manufacturer's instructions for cultured cells. Total RNA concentration and purity were determined using a Nanodrop 2000 spectrophotometer.
OpenArray format. OpenArrays were run in a Life Technologies QuantStudio 12K Flex instrument. Each gene was assayed in duplicate.
Data Analysis: qPCR data was imported into RealTime StatMiner software v4.2 for statistical analysis using the relative quantitation (RQ) method. […] Unpaired t-tests were carried out using StatMiner software. Statistically significant changes in gene expression (p<0.05) are reported. Linear fold-change data for each subject was calculated using Microsoft Excel.For RQ values >1.0: Linear fold-change value = RQ value For RQ values < 1.0:Linear ford−change value = −1/RQ value [formula]
Statistical Data Analysis Using Statminer Software: qPCR data is typically expressed in log scale and then converted to a linear fold change value. A log10RQ value of 1.0 is equivalent to a 10-fold change in gene expression. A log10RQ value of 0.3 is equivalent to a 2-fold change in gene expression. The log10RQ values have been converted to linear fold change values to simplify data interpretation.

Row | Compound | Linear Fold-Change Value, Each Group vs the Untreated Control: KRT1 (KRT1) | Linear Fold-Change Value, Each Group vs the Untreated Control: SPINK5 (SPINK5) | Linear Fold-Change Value, Each Group vs the Untreated Control: CALML5 (CALML5) | Linear Fold-Change Value, Each Group vs the Untreated Control: KLK7 (KLK7) | Linear Fold-Change Value, Each Group vs the Untreated Control: LCE3D (LCE3D) | Changes in microRNA Expression of hsa-miR-203 (linear fold-change) (hsa-miR-203) | Changes in microRNA Expression of hsa-miR-720 (linear fold-change) (hsa-miR-720) | Linear Fold-Change Value, Each Group vs the Untreated Control: KRT10 (KRT10) | Linear Fold-Change Value, Each Group vs the Untreated Control: TP63 (TP63) | fold induction at 100 µM (hsa-miR-203; Homo sapiens, 24 h, read-out: Changes in microRNA Expression of hsa-miR-203 (linear fold-change)) | fold induction at 100 µM (TP63; Homo sapiens, 24 h, read-out: Linear Fold-Change Value, Each Group vs the Untreated Control: TP63)
1 | CC(C)(CO)[C@@H](O)C(=O)NCCCO [D-Panthenol, (+)-(R)-2,4-Dihydroxy-N-(3-hydroxypropyl)-3,3-dimethylbutyramid] | -4.68 fold | -2.00 fold | -1.87 fold | -1.60 fold | -1.99 fold | -1.76 fold | -2.21 fold | -2.26 fold | 1.54 fold |  | 
2 | Nc1nc2ncc(CNc3ccc(C(=O)N[C@@H](CCC(=O)O)C(=O)O)cc3)nc2c(=O)[nH]1 [Folic acid] | -3.27 fold | -1.79 fold | -1.67 fold | -1.41 fold | -1.72 fold | -1.46 fold | -1.64 fold | -1.73 fold | 1.43 fold |  | 
3 | NC(=O)c1cccnc1 [Niacinamide, nicotinamide] |  | n.s. |  | n.s. |  |  |  | n.s. |  | 1.03 | 1.21
4 | Cc1ncc(CO)c(CO)c1O.Cl [Pyridoxine HCl] | -4.56 fold | -2.05 fold | -1.90 fold | -1.44 fold | n.s. | -1.78 fold | -1.84 fold | -2.45 fold | 1.55 fold |  | 
5 | Cc1cc2nc3c(=O)[nH]c(=O)nc-3n(C[C@H](O)[C@H](O)[C@H](O)CO)c2cc1C [Vitamin B2, riboflavin] | -4.00 fold | n.s. | -1.24 fold | -2.03 fold | 1.60 fold | -1.96 fold | -1.93 fold | -2.50 fold | 1.34 fold |  | 
6 | cobalamin [Vitamin B12] | -2.42 fold | -1.63 fold | -1.73 fold | n.s. | -1.65 fold | -1.46 fold | -2.10 fold | n.s. |  |  | 

Reference: patent EP3513780A1, “METHOD FOR SUPPORTING EPIDERMAL STEM CELL SELF-RENEWAL” (DSM IP Assets B.V., priority 2018, dated 2019)
